Active and inactive are the calls of the source. No cut-off for these calls is given here.
Each compound was assayed against T1, Prolyl endopeptidase (Homo sapiens) (UniProt P48147) (assay: Displacement of fluorophosphonate rhodamine from human cloned prolyl oligopeptidase expressed in Escherichia coli at 5 to 100 uM by SDS-PAGE).
T1 sequence (whole entry): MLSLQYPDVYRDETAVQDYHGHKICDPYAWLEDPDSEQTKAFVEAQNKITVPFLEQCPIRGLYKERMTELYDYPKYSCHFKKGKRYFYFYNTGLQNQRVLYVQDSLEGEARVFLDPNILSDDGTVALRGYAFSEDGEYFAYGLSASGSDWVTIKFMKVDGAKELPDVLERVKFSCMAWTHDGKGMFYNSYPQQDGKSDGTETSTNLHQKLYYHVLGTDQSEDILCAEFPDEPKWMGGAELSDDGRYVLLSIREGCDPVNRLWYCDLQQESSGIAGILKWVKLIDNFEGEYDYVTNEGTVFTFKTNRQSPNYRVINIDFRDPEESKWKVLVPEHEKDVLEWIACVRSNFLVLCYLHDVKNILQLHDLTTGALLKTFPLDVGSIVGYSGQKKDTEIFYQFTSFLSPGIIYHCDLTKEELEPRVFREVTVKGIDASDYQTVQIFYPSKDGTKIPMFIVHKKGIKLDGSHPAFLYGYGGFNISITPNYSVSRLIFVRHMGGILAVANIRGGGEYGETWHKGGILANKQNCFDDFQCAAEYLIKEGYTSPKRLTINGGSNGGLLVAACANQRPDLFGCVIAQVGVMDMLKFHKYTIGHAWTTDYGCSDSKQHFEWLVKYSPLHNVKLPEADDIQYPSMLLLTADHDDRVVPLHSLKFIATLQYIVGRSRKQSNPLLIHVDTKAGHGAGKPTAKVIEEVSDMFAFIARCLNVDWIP

Activity	Structure (SMILES)
Active	C#CCCCC(=O)N[C@@H](Cc1ccc(C(=O)c2ccccc2)cc1)C(=O)NCCOCCOCCOCCOCC(=O)N1CCC[C@H]1C(=O)N1CCC[C@H]1C=O
Active	C#CCCCC(=O)N[C@@H](Cc1ccc(C(=O)c2ccccc2)cc1)C(=O)NCCCCCC(=O)N1CCC[C@H]1C(=O)N1CCC[C@H]1C=O
Active	C#CCCCC(=O)N[C@@H](Cc1ccc(C(=O)c2ccccc2)cc1)C(=O)N1CCC[C@H]1C(=O)N1CCC[C@H]1C=O

Source: ChEMBL document CHEMBL1151936, “Using peptidyl aldehydes in activity-based proteomics” (Bioorg Med Chem Lett, 2009)
